Measured values taken from publication PMC7833758, “Characterization of fructooligosaccharide metabolism and fructooligosaccharide-degrading enzymes in human commensal butyrate producers” (Gut Microbes, 2021).

Target: T1, R.intestinalis-GH32 (Roseburia intestinalis, UniProt C7G9C0)
T1 construct: gene sacC; expressed from pET28a in E. coli BL21(DE3), cell-free extract; intracellular; cluster 3, only GH32 of the strain
T1 sequence (C7G9C0 1-563): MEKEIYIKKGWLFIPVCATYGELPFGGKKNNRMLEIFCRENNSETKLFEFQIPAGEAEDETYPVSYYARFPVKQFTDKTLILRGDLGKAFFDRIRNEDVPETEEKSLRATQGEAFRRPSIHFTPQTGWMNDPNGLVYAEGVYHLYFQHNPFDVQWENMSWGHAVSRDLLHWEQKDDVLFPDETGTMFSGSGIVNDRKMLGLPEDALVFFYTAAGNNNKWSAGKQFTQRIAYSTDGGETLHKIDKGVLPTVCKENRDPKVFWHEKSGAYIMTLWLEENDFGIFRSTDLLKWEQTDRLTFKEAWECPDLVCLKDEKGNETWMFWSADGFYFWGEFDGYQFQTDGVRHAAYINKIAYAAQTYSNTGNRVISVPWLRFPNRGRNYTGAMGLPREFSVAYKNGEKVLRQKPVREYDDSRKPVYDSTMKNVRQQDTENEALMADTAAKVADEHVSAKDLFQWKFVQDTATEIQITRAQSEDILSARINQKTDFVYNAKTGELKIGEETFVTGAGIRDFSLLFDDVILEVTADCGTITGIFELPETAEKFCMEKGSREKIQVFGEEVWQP
Assay: degradation by E. coli cell-free extract
Assay type: biochemical

Structure (SMILES)	degradation by E. coli cell-free extract
OC[C@H]1O[C@@](CO)(OC[C@@]2(O[C@H]3O[C@H](CO)[C@@H](O)[C@H](O)[C@H]3O)O[C@H](CO)[C@@H](O)[C@@H]2O)[C@@H](O)[C@@H]1O [kestose]	cell-free extracts containing R.intestinalis-GH32
OC[C@H]1O[C@@](CO)(OC[C@@]2(OC[C@@]3(O[C@H]4O[C@H](CO)[C@@H](O)[C@H](O)[C@H]4O)O[C@H](CO)[C@@H](O)[C@@H]3O)O[C@H](CO)[C@@H](O)[C@@H]2O)[C@@H](O)[C@@H]1O [nystose]	cell-free extracts containing R.intestinalis-GH32
